Measured values from patent US8729087B2, “Compositions and methods for inhibition of the JAK pathway” (Rigel Pharmaceuticals, Inc., priority 2006, dated 2014).
pIC50: −log10 of the molar value. Where two headings read alike, the source gives them in different places.

Experiments:
[1] = system: Human U937 monocytic cells; experiment: U937 IFNγ ICAM1 FACS Assay; format: cell-based
Source text: (§1) The activity of the compounds of the invention may additionally be characterized by assaying the effect of the 2,4-pyrimidinediamine compounds described herein on A549 lung epithelial cells and U937 cells. A549 lung epithelial cells and U937 cells up-regulate ICAM-1 (CD54) surface expression in response to a variety of different stimuli. Therefore, using ICAM-1 expression as readout, test compound effects on different signaling pathways can be assessed in the same cell type. Stimulation with IL-1β through the IL-1β receptor activates the TRAF6/NFκB pathway resulting in up-regulation of ICAM-1. IFNγ induces ICAM-1 up-regulation through activation of the JAK1/JAK2 pathway. The up-regulation of ICAM-1 can be quantified by flow cytometry across a compound dose curve and EC50 values are calculated. An exemplary assays of this type are described in greater detail in Examples 4 and 5.
(§2) Human U937 monocytic cells up-regulate ICAM-1 (CD54) surface expression in response to a variety of different stimuli. Therefore, using ICAM-1 expression as readout, compound effects on different signaling pathways can be assessed in the same cell type. IFNγ up-regulates ICAM-1 through activation of the JAK/Stat pathway. In this example, the up-regulation of ICAM-1 by IFNγ was assessed.
The U937 human monocytic cell line was obtained from ATCC of Rockville Md., catalog number CRL-1593.2, and cultured in RPM1-1640 medium containing 10% (v/v) FCS. U937 cells were grown in 10% RPMI. The cells were then plated at a concentration of 100,000 cells per 160 μL in 96 well flat bottom plates. The test compounds were then diluted as follows: 10 mM test compound was diluted 1:5 in DMSO (3 μL 10 mM test compound in 12 μL DMSO), followed by a 1:3 serial dilution of test compound in DMSO (6 μL test compound serially diluted into 12 μL DMSO to give 3-fold dilutions). Then 4 μL of test compound was transferred to 76 μL of 10% RPMI resulting in a 10× solution (100 μM test compound, 5% DMSO). For control wells, 4 μL of DMSO was diluted into 76 μL 10% RPMI.
The assay was performed in duplicate with 8 points (8 3-fold dilution concentrations from […]) and with 4 wells of DMSO only (control wells) under stimulated conditions and 4 wells of DMSO only under unstimulated conditions.
The diluted compound plate was mixed 2× using a multimek (Beckman Coulter of Brea, Calif.) and then 20 μL of the diluted compounds was transferred to the 96 well plate containing 160 μL of cells, which were then mixed again twice at low speeds. The cells and compounds were then pre-incubated for 30 minutes at 37° C. with 5% CO2.
The 10× stimulation mix was made by preparing a 100 ng/mL solution of human IFNγ in 10% RPMI. The cells and compound were then stimulated with 20 μL of IFNγ stimulation mix to give a final concentration of 10 ng/mL IFNγ, 10 μM test compound, and 0.5% DMSO. The cells were kept under conditions for stimulation for 18-24 hours at 37° C. with 5% CO2.
The cells were transferred to a 96 well round bottom plate for staining and then kept on ice for the duration of the staining procedure. Cells were spun down at 1000 rpm for 5 minutes at 4° C., following which the supernatant was removed. Following removal of the supernatant, 1 μL APC conjugated mouse anti-human ICAM-1 antibody was added per 100 μL FACS buffer. The cells were then incubated on ice in the dark for 30 minutes. Following incubation, 150 μL of FACS buffer was added and the cells were centrifuged at 1000 rpm for 5 minutes at 4° C., following which the supernatant was removed. After removal of the supernatant, 200 μL of FACS buffer was added and the cells were resuspended. After suspension, the cells were centrifuged at 1000 rpm for 5 min at 4° C. Supernatant was then removed prior to resuspension of the cells in 150 μL FACS buffer.
Detection was performed using a BD LSR I System Flow Cytometer, purchased from BD Biosciences of San Jose, Calif. […]

[2] = system: A549 lung epithelial cells; experiment: A549 Epithelial Line Stimulated with IFNγ (ICAM-1 surface expression, FACS); format: cell-based, human; details: IFNγ 75 ng/mL, 24 hours, ICAM-1 (CD54) surface expression by flow cytometry; read-out: Example 4 (IC50, A549 epithelial line stimulated with IFNγ)
Source text: as §1
as §2, with “A549 lung epithelial” for “Human U937 monocytic”
The A549 lung epithelial carcinoma cell line originated from the American Type Culture Collection. Routine culturing was with F12K media (Mediatech Inc., Lenexa, Kans., Cat. No. 10-025-CV) with 10% fetal bovine serum, 100 I.U. penicillin and […] streptomycin (complete F12k media). Cells were incubated in a humidified atmosphere of 5% CO2 at 37° C. Prior to use in the assay, A549 cells were washed with PBS and trypsinized (Mediatech Inc., Cat. No. 25-052-CI) to lift the cells. The trypsin cell suspension was neutralized with complete F12K media and centrifuged to pellet the cells. The cell pellet was resuspended in complete F12K media at a concentration of 2.0×10^5/mL. Cells were seeded at 20,000 per well, 100 μL total volume, in a flat bottom tissue culture plate and allowed to adhere overnight.
On day two, A549 cells were pre-incubated with a 2,4-pyrimidinediamine test compound or DMSO (control) (Sigma-Aldrich, St. Louis, Mo., Catalog No. D2650) for 1 hour. The cells were then stimulated with IFNγ (75 ng/mL) (Peprotech Inc., Rocky Hill, N.J., Cat. No. 300-02) and allowed to incubate for 24 hours. The final test compound dose range was 30 μM to 14 nM in 200 μL F12K media containing 5% FBS, 0.3% DMSO.
On day three, the cell media was removed and the cells were washed with 200 μL PBS (phosphate buffered saline). Each well was trypsinized to dissociate the cells, then neutralized by addition of 200 μL complete F12K media. Cells were pelleted and stained with an APC conjugated mouse anti-human ICAM-1 (CD54) (BD Pharmingen, San Diego, Calif., Catalog #559771) antibody for 20 minutes at 4° C. Cells were washed with ice cold FACS buffer (PBS+2% FBS) and surface ICAM-1 expression was analyzed by flow cytometry. Detection was performed using a BD LSR I System Flow Cytometer, purchased from BD Biosciences of San Jose, Calif. Events were gated for live scatter and the geometric mean was calculated (Becton-Dickinson CellQuest software version 3.3, Franklin Lakes, N.J.). Geometric means were plotted against the compound concentration to generate a dose response curve.

[3] = IFNγ 10 ng/mL, 18-24 hours, ICAM-1 expression by flow cytometry, read-out: Example 5 (IC50, U937 IFNγ ICAM1 FACS assay)
[4] = Homo sapiens, U-937, IFNγ 10 ng/mL, 18-24 hours, ICAM-1 expression by flow cytometry, read-out: Example 5 (IC50, U937 IFNγ ICAM1 FACS assay)

Row | Structure (SMILES) | pIC50 [1, 3] | pIC50 [2] | further results
1 | CCS(=O)(=O)NCc1ccc(Nc2nc(Nc3ccc(CS(=O)(=O)NC)cc3)ncc2C)cc1 [Compound I-2, N4-(4-ethylsulfonylaminomethyl)phenyl-5-methyl-N2-(4-methylaminosulfonylmethyl)phenyl-2,4-pyrimidinediamine] | 6.87 | 5.76 | –
2 | Cc1cnc(Nc2ccc(CNS(=O)(=O)C3CC3)cc2)nc1Nc1ccc(CNS(=O)(=O)C2CC2)cc1 [II-1, N2,N4-bis(4-cyclopropylsulfonylaminomethyl)phenyl-5-methyl-2,4-pyrimidinediamine] | 7.15 | 5.21 | –
3 | CC1(C)Oc2cc(Nc3nc(Nc4cccc(CS(N)(=O)=O)c4)ncc3F)cnc2NC1=O [IV-1, N2-[3-(Aminosulfonylmethylene)phenyl]-N4-[2,2-dimethyl-3-oxo-4H-pyrid[1,4]oxazin-7-yl]-5-fluoro-2,4-pyrimidinediamine] | 4.73 | – | –
4 | Cc1cnc(Nc2ccc(S(N)(=O)=O)cc2)nc1Nc1ccc2c(c1)C(NS(C)(=O)=O)CC2 (racemic) [VI-2, (+/−)-N2-(4-Aminosulfonylphenyl)-5-methyl-N4-[1-(methylsulfonyl)aminoindan-6-yl]-2,4-pyrimidinediamine] | – | – | pIC50 [1, 4]: 5.59
5 | CCS(=O)(=O)NCc1ccc(Nc2nc(Nc3ccc(CS(=O)(=O)NC)cc3)ncc2F)cc1 [Compound I-10, N4-(4-ethylsulfonylaminomethyl)phenyl-5-fluoro-N2-(4-methylaminosulfonylmethyl)phenyl-2,4-pyrimidinediamine] | 6.33 | – | –
6 | C#CCOc1ccc(Nc2nc(Nc3ccc4c(c3)CN(S(N)(=O)=O)CC4)ncc2F)cc1 [III-4, N2-(2-Aminosulfonyl-1,2,3,4-tetrahydroisoquinolin-7-yl)-N4-(4-(prop-2-ynyloxy)phenyl)-5-fluoro-2,4-pyrimidinediamine] | – | – | pIC50 ([1]; Homo sapiens, U-937, read-out: Example 5 (IC50, U937 IFNγ ICAM1 FACS assay)): 6.34
7 | CN1C(=O)C(C)(C)Oc2cc(Nc3nc(Nc4cccc(CS(N)(=O)=O)c4)ncc3F)cnc21 [IV-2, N2-[3-(Aminosulfonylmethylene)phenyl]-N4-[2,2-dimethyl-3-oxo-4-methyl-pyrid[1,4]oxazin-7-yl]-5-fluoro-2,4-pyrimidinediamine] | – | 5.46 | –
8 | Cc1cnc(Nc2ccc(CCNS(=O)(=O)C3CC3)cc2)nc1Nc1ccc(CCNS(=O)(=O)C2CC2)cc1 [II-2, N2,N4-bis[4-(2-cyclopropylsulfonylamino)ethyl]phenyl-5-methyl-2,4-pyrimidine diamine] | 6.00 | – | –
9 | N#CCOc1ccc(Nc2nc(Nc3cccc(CS(N)(=O)=O)c3)ncc2F)cc1 [Compound I-1, N2-[3-(Aminosulfonylmethylene)phenyl]-5-fluoro-N4-(4-cyanomethyleneoxyphenyl)-2,4-pyrimidinediamine] | 6.26 | 5.51 | –
10 | CNS(=O)(=O)Cc1ccc(Nc2ncc(F)c(Nc3ccc(CNS(=O)(=O)C4CC4)cc3)n2)cc1 [Compound I-8, N4-(4-cyclopropylsulfonylaminomethyl)phenyl-5-fluoro-N2-(4-methylaminosulfonylmethyl)phenyl-2,4-pyrimidinediamine] | 6.46 | 5.41 | –
11 | COc1cc(Nc2nc(Nc3ccc4c(c3)CN(S(N)(=O)=O)CC4)ncc2F)ccc1Cl [III-1, N2-(2-Aminosulfonyl-1,2,3,4-tetrahydroisoquinolin-7-yl)-N4-(4-chloro-3-methoxyphenyl)-5-fluoro-2,4-pyrimidinediamine] | – | – | pIC50 [1, 4]: 5.97
12 | NS(=O)(=O)N1CCc2ccc(Nc3ncc(F)c(Nc4ccc(CNS(=O)(=O)C5CC5)cc4)n3)cc2C1 [III-2, N2-(2-Aminosulfonyl-1,2,3,4-tetrahydroisoquinolin-7-yl)-N4-[4-(cyclopropylsulfonylaminomethyl)phenyl]-5-fluoro-2,4-pyrimidinediamine] | – | – | pIC50 [1, 4]: 6.79
